Experimental data: patent US20250011287A1, “FLUORINE-CONTAINING COMPOUND AND CONTRAST AGENT” (TDK CORPORATION, priority 2021, published 2025)

Experiments:
[1] = 19F spin-lattice relaxation time (T1) measurement by inversion recovery method, 500 MHz NMR; type: physicochemical; settings: 5 mM/CDCl3, 36° C.
Procedure: (§1) For each of the compounds of Examples 1 to 10, Comparative Example 1, and Comparative Example 2 obtained as above, a ^19F spin-lattice relaxation time (T1) and a ^19F spin-spin relaxation time (T2) were measured by the following method.
The compound was dissolved in a deuterated chloroform solution at a concentration of 5 mM, and the longitudinal relaxation time (T1) of the ^19F nucleus was measured using a 500 MHz NMR device by an inversion recovery method under the conditions described below.
• NMR device: JNM-ECA500 (manufactured by JOEL) • Measurement temperature: 36° C. • Pulse sequence: double_pulse • relaxation_delay: 10 [s] • tau_interval: 4, 3, 2, 1, 0.8, 0.6, 0.4, 0.2, 0.1 [s], 80, 60, 40, 20, 10, 8, 6, 4, 2 [ms] • Accumulated number of times: 128 times

[2] = 19F spin-spin relaxation time (T2) measurement by CPMG method, 500 MHz NMR; type: physicochemical; settings: 5 mM/CDCl3, 36° C.
Procedure: as §1
The compound was dissolved in a deuterated chloroform solution at a concentration of 5 mM, and the transverse relaxation time (T2) of the ^19F nucleus was measured using a 500 MHz NMR device by a Carr-Purcell-Meiboom-Gill (CPMG) method under the conditions described below.
• NMR device: JNM-ECA500 (manufactured by JOEL) • Measurement temperature: 36° C. • relaxation_delay: 10 [s] • tau_step: 1 [ms] • relaxation_delay: 1, 2, 3, 4, 5, 6, 8, 9, 10, 25, 50, 75 [ms], 0.10, 0.25, 0.50, 0.75, 1.00, 1.25, 1.50, 1.75, 2.00 [s] • Accumulated number of times: 128 times

Row | Molecule | T1 (19F spin-lattice relaxation time) [1] [s] | T2 (19F spin-spin relaxation time) [2] [s]
1 | CC1(C)CC(OCCCCCCCCCCCCOCC(COC(C(F)(F)F)(C(F)(F)F)C(F)(F)F)(COC(C(F)(F)F)(C(F)(F)F)C(F)(F)F)COC(C(F)(F)F)(C(F)(F)F)C(F)(F)F)CC(C)(C)N1O [Compound 20] | 0.612 | 0.390
2 | CC1(C)CC(OCCOCC(COC(C(F)(F)F)(C(F)(F)F)C(F)(F)F)(COC(C(F)(F)F)(C(F)(F)F)C(F)(F)F)COC(C(F)(F)F)(C(F)(F)F)C(F)(F)F)CC(C)(C)N1O [Compound 14] | 0.153 | 0.101
3 | CCC1(CC)CC(OCCOCC(COC(C(F)(F)F)(C(F)(F)F)C(F)(F)F)(COC(C(F)(F)F)(C(F)(F)F)C(F)(F)F)COC(C(F)(F)F)(C(F)(F)F)C(F)(F)F)CC(CC)(CC)N1O [Compound 15] | 0.145 | 0.092
4 | 1,3-Bis(2,2,2-trifluoro-1,1-bis(trifluoromethyl(ethoxy)-2,2-bis((2,2,2-trifluoro-1,1-bis(trifluoromethyl)ethoxy)methyl)propane [Compound A1, reference compound] | 1.380 | 1.270
5 | CC1(C)CC(OCCCCCCOCC(COC(C(F)(F)F)(C(F)(F)F)C(F)(F)F)(COC(C(F)(F)F)(C(F)(F)F)C(F)(F)F)COC(C(F)(F)F)(C(F)(F)F)C(F)(F)F)CC(C)(C)N1O [Compound 18] | 0.428 | 0.274
6 | 4-(3-((1,1,1,3,3,3-hexafluoro-2-(trifluoromethyl)propan-2-yl)oxy)-2-(((1,1,1,3,3,3-hexafluoro-2-(trifluoromethyl)propan-2-yl)oxy)methyl)-2-methylpropoxy)-2,2,6,6-tetramethylpiperidin-1-oxyl [Compound 13] | 0.071 | 0.050
7 | CCC1(CC)CC(OCC(COC(C(F)(F)F)(C(F)(F)F)C(F)(F)F)(COC(C(F)(F)F)(C(F)(F)F)C(F)(F)F)COC(C(F)(F)F)(C(F)(F)F)C(F)(F)F)CC(CC)(CC)N1O [Compound 12, 4-(3-((1,1,1,3,3,3-hexafluoro-2-(trifluoromethyl)propan-2-yl)oxy)-2,2-bis(((1,1,1,3,3,3-hexafluoro-2-(trifluoromethyl)propan-2-yl)oxy)methyl)propoxy)-2,2,6,6-tetraethylpiperidin-1-oxyl] | 0.070 | 0.049
8 | 4-(3-((1,1,1,3,3,3-hexafluoro-2-(trifluoromethyl)propan-2-yl)oxy)-2,2-bis(((1,1,1,3,3,3-hexafluoro-2-(trifluoromethyl)propan-2-yl)oxy)methyl)propoxy)-2,2,6,6-tetramethylpiperidin-1-oxyl [Compound 11] | 0.077 | 0.057
9 | CCC1(CC)CC(OCCCOCC(COC(C(F)(F)F)(C(F)(F)F)C(F)(F)F)(COC(C(F)(F)F)(C(F)(F)F)C(F)(F)F)COC(C(F)(F)F)(C(F)(F)F)C(F)(F)F)CC(CC)(CC)N1O [Compound 17] | 0.172 | 0.108
10 | CC1(C)CC(OCCCCCCCCCOCC(COC(C(F)(F)F)(C(F)(F)F)C(F)(F)F)(COC(C(F)(F)F)(C(F)(F)F)C(F)(F)F)COC(C(F)(F)F)(C(F)(F)F)C(F)(F)F)CC(C)(C)N1O [Compound 19] | 0.520 | 0.332
11 | CC1(C)CC(OCCCOCC(COC(C(F)(F)F)(C(F)(F)F)C(F)(F)F)(COC(C(F)(F)F)(C(F)(F)F)C(F)(F)F)COC(C(F)(F)F)(C(F)(F)F)C(F)(F)F)CC(C)(C)N1O [Compound 16] | 0.183 | 0.120
